According to ChEMBL document CHEMBL1201862, “PubChem BioAssay data set” (2004):
Activity calls are given as the source filed them.

Experiments:
[1] = biological target: Mothers against decapentaplegic homolog 3 (Homo sapiens, UniProt P84022); test: blockers of Smad3 complex formation in lysate – cell lysate, secondary confirmation, chemiluminescent ELISA, HEK293 lysate, dose response (AID 1058); type: functional
[2] = mitochondrial function rescue without frataxin homolog – Friedreich's ataxia, plus single-dose screen, dose response (AID 1465); type: functional;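 further: yeast depleted of Yfh1p frataxin homolog grown on glycerol needing respiration; WST-1 tetrazolium dye reduction as measure of cellular dehydrogenase metabolic activity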
[3] = non-specific 3'UTR reporter inhibition in Clone20-Shn3RL – cell-based, Renilla luciferase, cherry-picked, counter-screen for Shn3 inhibitor project, dose response (AID 624133); type: functional
[4] = biological target: T1, Mannose-6-phosphate isomerase (Homo sapiens, UniProt P34949); test: MPI enzyme activity inhibition – biochemical, fluorescence intensity, coupled assay, primary screen (AID 1209)
T1 sequence (P34949 whole entry): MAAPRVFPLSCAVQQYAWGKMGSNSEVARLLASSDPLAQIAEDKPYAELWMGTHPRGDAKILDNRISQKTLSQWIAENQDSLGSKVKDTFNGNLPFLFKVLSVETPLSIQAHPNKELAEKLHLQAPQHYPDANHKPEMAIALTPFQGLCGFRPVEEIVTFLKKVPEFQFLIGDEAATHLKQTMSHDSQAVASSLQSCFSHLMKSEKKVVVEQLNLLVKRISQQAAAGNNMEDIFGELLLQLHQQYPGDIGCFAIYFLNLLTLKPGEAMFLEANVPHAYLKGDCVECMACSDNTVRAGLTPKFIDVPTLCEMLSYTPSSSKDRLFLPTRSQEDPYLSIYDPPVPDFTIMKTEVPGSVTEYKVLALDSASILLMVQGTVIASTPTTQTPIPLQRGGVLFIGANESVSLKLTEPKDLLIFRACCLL

[5] = cells; type: functional, cell-based
[6] = Luminescence Cell-Based Dose Response HTS to Identify Inhibitors of 5'UTR Stem-Loop Driven Prion Protein mRNA Translation in H4 Neuroglioblastoma Cells. [Related pubchem assays: 1827 (Project Summary), 1813 (Primary HTS)]; type: functional
[7] = biological target: Nonstructural protein 1 (Influenza A virus, UniProt Q194T2); type: functional, Influenza A virus (A/California/07/2009(H1N1))
[8] = Trypanosoma cruzi growth suppression in host cells – NIH3T3 host cells, beta-gal luminescence, confirmation (AID 2044); type: functional, cell-based;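 further: intracellular parasites grown in NIH/3T3 mouse fibroblasts as host cells; luminescent beta-galactosidase reporter signal from transgenic T. cruzi replicating inside host cells; inhibitors lower the luminescence signal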
[9] = tested on: INS1; test: INS-1E survival protection against cytokine death – cell-based, luminescence, retest, dose response (AID 449756); type: functional; details: Rattus norvegicus;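 further: cell death triggered by IL-1 beta plus TNF-alpha plus IFN-gamma mixture; protective hits raise ATP signal compared with cytokine alone wells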
[10] = loss of viability in HepG2 cells – cell-based, CellTiter-Glo, cherry-picked, cytotoxicity control for Shn3 inhibitor project, dose response (AID 624134); type: functional
[11] = NIH-3T3 fibroblast cytotoxicity, dose response, cytotoxicity control, cell-based, fluorescence, Alamar Blue, secondary assay (AID 2327); type: functional;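 further: NIH-3T3 mouse fibroblasts cultured with fluconazole at 8 µg/mL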
[12] = luciferase reporter signal suppression in cells – H4 neuroglioma cells, luminescence, dose response (AID 1990); type: functional, cell-based
[13] = reduction of Shn3 3'UTR-driven luciferase in osteoblasts – cell-based, Clone20 osteoblasts, firefly luciferase, cherry-picked, dose response (AID 624132); type: functional;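 further: firefly luciferase luminescence from reporter carrying the Shn3 3'UTR in osteoblasts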
[14] = alpha-synuclein stem-loop luciferase translation blockers – H4 neuroglioma cells, luminescence, confirmation (AID 1988); type: functional, cell-based
[15] = cells; type: functional, cell-based; remark: listed apart in the source
[16] = fluconazole-exposed Candida albicans growth modulators – fluorescence, retest, confirmation (AID 2467); type: functional, cell-based
[17] = NIH3T3 cell viability loss – ATP luminescence, mouse fibroblasts, counter-screen, dose response (AID 2010); type: functional, cell-based;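 further: cells exposed to compound for about 90 hours before reading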
[18] = biological target: T2, Heat shock factor protein 1 (Mus musculus, UniProt P38532); test: decrease of HSF1-responsive luciferase luminescence – cell-based, NIH3T3, dose retest, confirmation (AID 2382); type: functional;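 further: NIH3T3 fibroblasts with HSF1-driven luciferase reporter stressed by proteasome inhibitor MG132; luminescence from HSF1-driven luciferase expression after 8 hours of MG132 stress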
T2 sequence (P38532 whole entry): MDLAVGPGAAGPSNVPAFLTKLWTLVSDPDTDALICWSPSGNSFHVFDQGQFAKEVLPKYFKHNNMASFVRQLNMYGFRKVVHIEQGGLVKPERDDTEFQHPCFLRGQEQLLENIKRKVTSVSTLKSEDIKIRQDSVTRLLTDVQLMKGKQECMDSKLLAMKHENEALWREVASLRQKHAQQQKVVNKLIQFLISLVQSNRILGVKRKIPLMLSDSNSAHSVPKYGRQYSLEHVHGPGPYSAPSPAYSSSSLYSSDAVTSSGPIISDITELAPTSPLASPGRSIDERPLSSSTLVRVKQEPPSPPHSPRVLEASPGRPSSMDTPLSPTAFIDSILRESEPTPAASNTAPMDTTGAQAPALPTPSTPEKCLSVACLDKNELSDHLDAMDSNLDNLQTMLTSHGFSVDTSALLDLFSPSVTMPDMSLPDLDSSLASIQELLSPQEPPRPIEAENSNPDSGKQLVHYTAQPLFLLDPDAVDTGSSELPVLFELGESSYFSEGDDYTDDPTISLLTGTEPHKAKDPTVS

[19] = biological target: T3, Probable nicotinate-nucleotide adenylyltransferase (Staphylococcus aureus (strain N315), UniProt P65502); type: functional, Staphylococcus aureus subsp. aureus N315; details: read-out: IC50_Mean;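 on IC50 Mean: confirmatory dose-response retesting of NadD inhibitor hits first found in an ultra-high-throughput screen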
[20] = biological target: T4, Aminopeptidase N (Plasmodium falciparum FcB1/Columbia, UniProt O96935); test: malaria alanyl aminopeptidase activity blockers – biochemical, fluorogenic H-Leu-NHMec substrate, 1536-well (AID 1445); parameters: species or system Plasmodium falciparum 3D7, 3D7
T4 sequence (O96935 whole entry): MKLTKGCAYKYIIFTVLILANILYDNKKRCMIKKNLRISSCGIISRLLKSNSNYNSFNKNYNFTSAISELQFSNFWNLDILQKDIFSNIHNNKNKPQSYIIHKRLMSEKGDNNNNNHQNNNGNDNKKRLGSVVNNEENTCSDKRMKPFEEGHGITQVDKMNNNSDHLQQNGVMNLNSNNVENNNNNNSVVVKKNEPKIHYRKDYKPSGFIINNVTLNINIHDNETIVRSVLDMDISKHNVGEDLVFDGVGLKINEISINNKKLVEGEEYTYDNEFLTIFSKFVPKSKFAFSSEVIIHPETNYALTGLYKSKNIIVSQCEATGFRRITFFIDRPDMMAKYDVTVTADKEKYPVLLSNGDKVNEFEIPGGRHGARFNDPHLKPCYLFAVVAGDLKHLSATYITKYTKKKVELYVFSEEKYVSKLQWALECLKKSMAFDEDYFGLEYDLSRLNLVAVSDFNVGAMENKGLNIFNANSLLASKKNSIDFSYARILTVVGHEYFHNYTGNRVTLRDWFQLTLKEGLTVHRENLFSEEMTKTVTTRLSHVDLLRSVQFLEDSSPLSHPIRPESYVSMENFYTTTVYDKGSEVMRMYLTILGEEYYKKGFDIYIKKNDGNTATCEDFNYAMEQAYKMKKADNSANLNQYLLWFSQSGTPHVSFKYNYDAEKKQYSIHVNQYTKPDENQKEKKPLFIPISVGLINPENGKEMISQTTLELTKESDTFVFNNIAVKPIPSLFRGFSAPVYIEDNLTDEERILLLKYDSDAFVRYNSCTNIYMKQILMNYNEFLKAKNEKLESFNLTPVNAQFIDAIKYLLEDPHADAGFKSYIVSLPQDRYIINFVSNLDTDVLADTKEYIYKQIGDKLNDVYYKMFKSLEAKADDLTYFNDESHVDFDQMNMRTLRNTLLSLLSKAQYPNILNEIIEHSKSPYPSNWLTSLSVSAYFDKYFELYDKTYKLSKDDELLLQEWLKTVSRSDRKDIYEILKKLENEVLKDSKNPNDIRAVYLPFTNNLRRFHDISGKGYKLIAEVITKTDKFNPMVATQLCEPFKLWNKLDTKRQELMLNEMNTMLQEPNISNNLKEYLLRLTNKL

[21] = biological target: Neuropeptide Y receptor type 1 (Homo sapiens, UniProt P25929); test: Fluorescence-based counterscreen for agonists of NPY-Y2: cell-based high-throughput dose response assay for agonists of NPY-Y1.; type: functional
[22] = biological target: T3, Probable nicotinate-nucleotide adenylyltransferase; type: functional, Staphylococcus aureus subsp. aureus N315
[23] = biological target: Neuropeptide Y receptor type 2 (Homo sapiens, UniProt P49146); test: Fluorescence-based cell-based high-throughput dose response assay for agonists of NPY-Y2. [Related pubchem assays: 1703 (Screening assay (CNGC inhibitors).), 1359 (Screening assay (NPY-Y2 potentiators or agonists).), 1304 (Screening assay (NPY-Y1 potentiators or agonists).), 1710 (Screening assay (NPY-Y2 agonists).), 1791 (Summary AID.)]; type: functional
[24] = CCR5-tropic HIV-1 fusion blockers – cell-based, CCR5-tropic Env, dose response (AID 2279); type: functional
[25] = tested on: Vero; test: viability of Vero cells under compound – cytotoxicity control for flavivirus capping enzyme inhibitors (AID 588742); type: functional; details: Chlorocebus sabaeus
[26] = tested on: HEK293; test: Fluorescence-based counterscreen for potentiators or agonists of NPY-Y2: cell-based high-throughput dose response assay to identify inhibitors of cyclic nucleotide gated ion channel (CNGC) activity. In this assay, the parental HEK293 cell line transfected with a cyclic-nucleotide gated ion channel (CNGC)-based cAMP sensor is used to measure inhibition of isoproterenol-induced CNGC activity by test compound.; type: functional; details: Homo sapiens;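 further: stimulus is 1 µM isoproterenol at EC100 plus PDE inhibitor Ro 20-1724 at 25 µM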
[27] = biological target: Bcl-2-like protein 1 (Homo sapiens, UniProt Q07817); test: blockers of BCLXL peptide binding – biochemical, fluorescence polarization, 1536-well, selectivity assay for MCL1 inhibitor project, dose response (AID 2218)
[28] = biological target: T5, Carboxy-terminal domain RNA polymerase II polypeptide A small phosphatase 1 (Homo sapiens, UniProt Q9GZU7); test: CTDSP1 inhibitors, concentration-response, biochemical, absorbance readout, ultra-high-throughput screen actives (AID 540297); type: functional
T5 sequence (Q9GZU7 whole entry): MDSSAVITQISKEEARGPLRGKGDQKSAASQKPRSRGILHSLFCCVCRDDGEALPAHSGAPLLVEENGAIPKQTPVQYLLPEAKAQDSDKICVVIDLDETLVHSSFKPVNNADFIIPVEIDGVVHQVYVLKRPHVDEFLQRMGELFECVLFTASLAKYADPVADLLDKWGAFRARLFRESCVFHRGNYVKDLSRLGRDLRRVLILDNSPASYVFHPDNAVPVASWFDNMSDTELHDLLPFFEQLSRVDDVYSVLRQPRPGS

[29] = biological target: Induced myeloid leukemia cell differentiation protein Mcl-1 (Homo sapiens, UniProt Q07820); test: blockers of MCL1 binding to BIM peptide – biochemical, fluorescence polarization, BIM-BH3 peptide, 1536-well, dose response (AID 2217)
[30] = biological target: T6, Protein Tat (Human immunodeficiency virus type 1 group M subtype B (isolate HXB2)(HIV-1), UniProt P04608); type: functional;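 further: tat binding to TAR RNA read out by fluorescence polarization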
T6 sequence (P04608 whole entry): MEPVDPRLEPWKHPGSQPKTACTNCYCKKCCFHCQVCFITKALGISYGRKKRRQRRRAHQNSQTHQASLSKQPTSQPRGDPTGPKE

T3 sequence (P65502 whole entry): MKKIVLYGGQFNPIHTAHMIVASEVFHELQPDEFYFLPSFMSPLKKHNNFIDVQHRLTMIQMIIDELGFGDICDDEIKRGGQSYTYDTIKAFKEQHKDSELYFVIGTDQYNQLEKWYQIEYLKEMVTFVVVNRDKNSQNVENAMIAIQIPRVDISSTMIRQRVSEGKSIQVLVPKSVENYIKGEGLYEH
Mothers against decapentaplegic homolog 3, sequence (P84022 whole entry): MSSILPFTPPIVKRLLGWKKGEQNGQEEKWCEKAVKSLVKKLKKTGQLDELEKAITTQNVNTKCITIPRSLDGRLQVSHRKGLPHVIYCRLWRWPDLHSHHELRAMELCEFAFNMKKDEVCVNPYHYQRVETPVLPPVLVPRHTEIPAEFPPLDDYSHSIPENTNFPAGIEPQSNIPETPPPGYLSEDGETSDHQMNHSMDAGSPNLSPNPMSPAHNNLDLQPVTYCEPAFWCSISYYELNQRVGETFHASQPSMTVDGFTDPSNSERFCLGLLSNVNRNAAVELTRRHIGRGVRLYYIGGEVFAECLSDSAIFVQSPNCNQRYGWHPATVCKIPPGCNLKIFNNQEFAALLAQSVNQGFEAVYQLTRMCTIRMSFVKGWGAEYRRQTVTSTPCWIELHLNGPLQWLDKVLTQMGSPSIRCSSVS
Neuropeptide Y receptor type 1, sequence (P25929 whole entry): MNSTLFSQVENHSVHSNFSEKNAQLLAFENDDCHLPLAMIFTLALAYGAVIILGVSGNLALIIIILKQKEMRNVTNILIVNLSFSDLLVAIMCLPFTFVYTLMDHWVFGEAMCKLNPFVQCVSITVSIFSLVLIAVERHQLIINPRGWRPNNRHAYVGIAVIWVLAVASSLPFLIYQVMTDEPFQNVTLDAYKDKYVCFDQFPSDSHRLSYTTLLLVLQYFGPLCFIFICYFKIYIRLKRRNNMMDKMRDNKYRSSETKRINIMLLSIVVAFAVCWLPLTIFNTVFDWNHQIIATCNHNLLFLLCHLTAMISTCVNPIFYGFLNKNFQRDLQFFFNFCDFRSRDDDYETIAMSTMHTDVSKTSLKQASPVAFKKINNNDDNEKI
Nonstructural protein 1, sequence (Q194T2 whole entry): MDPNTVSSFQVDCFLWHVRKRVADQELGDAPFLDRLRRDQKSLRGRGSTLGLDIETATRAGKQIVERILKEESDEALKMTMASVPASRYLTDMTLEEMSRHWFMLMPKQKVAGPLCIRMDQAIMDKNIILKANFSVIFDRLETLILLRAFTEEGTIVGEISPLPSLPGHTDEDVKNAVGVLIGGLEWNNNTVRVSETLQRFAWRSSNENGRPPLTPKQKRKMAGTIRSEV
Induced myeloid leukemia cell differentiation protein Mcl-1, sequence (Q07820 whole entry): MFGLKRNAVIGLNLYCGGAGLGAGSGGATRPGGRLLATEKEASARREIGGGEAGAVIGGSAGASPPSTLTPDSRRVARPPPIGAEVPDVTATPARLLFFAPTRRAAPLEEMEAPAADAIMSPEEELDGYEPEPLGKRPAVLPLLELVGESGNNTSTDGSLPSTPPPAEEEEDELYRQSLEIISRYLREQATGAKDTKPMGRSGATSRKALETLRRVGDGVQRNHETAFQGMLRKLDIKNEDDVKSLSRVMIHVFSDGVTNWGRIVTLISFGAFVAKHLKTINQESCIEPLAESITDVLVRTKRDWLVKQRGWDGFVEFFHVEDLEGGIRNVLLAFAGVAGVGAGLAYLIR
Bcl-2-like protein 1, sequence (Q07817 whole entry, the tested form may be a part): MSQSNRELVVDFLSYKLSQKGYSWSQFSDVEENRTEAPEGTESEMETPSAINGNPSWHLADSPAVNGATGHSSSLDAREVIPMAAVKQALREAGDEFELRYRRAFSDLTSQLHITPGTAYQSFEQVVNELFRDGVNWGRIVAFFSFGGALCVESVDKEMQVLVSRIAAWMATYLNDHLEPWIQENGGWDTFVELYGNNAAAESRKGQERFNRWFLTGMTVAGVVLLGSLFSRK
Neuropeptide Y receptor type 2, sequence (P49146 whole entry, the tested form may be a part): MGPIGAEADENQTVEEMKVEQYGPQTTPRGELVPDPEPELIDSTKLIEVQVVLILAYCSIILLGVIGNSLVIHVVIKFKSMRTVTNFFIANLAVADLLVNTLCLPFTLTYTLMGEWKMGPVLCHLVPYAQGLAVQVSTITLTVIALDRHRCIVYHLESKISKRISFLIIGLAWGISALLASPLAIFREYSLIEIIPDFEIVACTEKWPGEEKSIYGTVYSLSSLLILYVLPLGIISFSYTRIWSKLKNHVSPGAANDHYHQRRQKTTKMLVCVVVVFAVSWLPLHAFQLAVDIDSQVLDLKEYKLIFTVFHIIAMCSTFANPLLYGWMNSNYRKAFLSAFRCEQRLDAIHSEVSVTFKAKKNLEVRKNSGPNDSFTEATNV

Compound: CC1NC(C(=O)O)Cc2cc(O)c(O)cc21 (stereo not given)
- IC50 [1]: > 50 µM (not active)

Compound: S=C(NCc1ccc2c(c1)OCO2)Nc1ccc(-c2nc3ccccc3[nH]2)cc1
- EC50 [2]: > 100 µM (active)

Compound: Oc1c(CN2CCOCC2)cc(COCc2ccccc2)c2cccnc12
- AC50 [3]: 3.15 µM (active)
- IC50 [4]: 25.7 µM (active)
- EC50 [5]: > 350 µM (not active)
- EC50 [6]: 5.43 µM (active)
- IC50 [7]: 4.95 µM (active)
- EC50 [8]: 1.26 µM (active)
- AC50 [9]: 2.39 µM (active)
- AC50 [10]: 2.13 µM (active)
- EC50 [11]: > 160 µM (inactive)
- EC50 [12]: 4.97 µM (active)
- AC50 [13]: 1.28 µM (active)
- EC50 [14]: 4.24 µM (active)
- EC50 [15]: 6.33 µM (active)
- EC50 [16]: 1.28 µM (active)
- EC50 [17]: 28 µM (active)
- EC50 [18]: 36.3 µM (active)

Compound: COc1ccccc1NS(=O)(=O)c1cccc(N2C(=O)/C(=C\Nc3ccccc3C(=O)O)c3ccccc3C2=O)c1
- IC50 [19]: 22.2 µM (active)
- IC50 [20]: 30.4 µM (active)
- EC50 [21]: > 11.8 µM (not active)
- IC50 [22]: 2.81 µM (active)
- EC50 [23]: 20.1 µM (not active)
- IC50 [24]: 19.6 µM (active)
- CC50 [25]: > 40 µM (active)
- EC50 [26]: 13.4 µM (not active)

Compound: Cc1ccc(NC(=O)c2cc(-c3ccc(C)o3)nc3ccccc23)nc1
- IC50 [27]: > 109 µM (not active)
- IC50 [28]: 4.78 µM (active)
- IC50 [29]: > 109 µM (not active)
- IC50 [30]: > 100 µM (active)
